In ChEMBL document CHEMBL4196086, “Recent advances of imidazole-containing derivatives as anti-tubercular agents” (Eur J Med Chem, 2018):
Converted amounts (≈) assume the structure as drawn.

Tests used:
[1] = Inhibition of Mycobacterium tuberculosis IMPDH
[2] = tested on: Mycobacterium tuberculosis; test: Antimycobacterial activity against Mycobacterium tuberculosis; assay type: functional
[3] = tested on: Mycobacterium tuberculosis; test: Antimycobacterial activity against Mycobacterium tuberculosis H37Rv; assay type: functional; details: Mycobacterium tuberculosis, H37Rv
[4] = tested on: Mycobacterium tuberculosis; test: Growth inhibition of Mycobacterium tuberculosis H37Rv at 100 ug/ml relative to control; assay type: functional; details: read-out: GI
[5] = tested on: Mycobacterium tuberculosis; test: Antimycobacterial activity against non-replicating Mycobacterium tuberculosis; assay type: functional
[6] = Selectivity index, ratio of IC50 for African green monkey Vero cells to MIC for Mycobacterium tuberculosis H37Rv ATCC 27294; assay type: toxicity; details: read-out: Selectivity Index
[7] = tested on: Mycobacterium tuberculosis; test: Antimycobacterial activity against Mycobacterium tuberculosis H37Rv ATCC 27294 by MABA; assay type: functional
[8] = tested on: Mycobacterium tuberculosis; test: Antimycobacterial activity against Mycobacterium tuberculosis H37Rv in logarithmic phase; assay type: functional
[9] = tested on: Mycobacterium tuberculosis; test: Antimycobacterial activity against Mycobacterium tuberculosis H37Rv in hypoxia-induced latent phase; assay type: functional
[10] = tested on: Mycobacterium tuberculosis; test: Antimycobacterial activity against Mycobacterium tuberculosis H37Rv after 5 days by MABA; assay type: functional; details: 120 h

O=C(Cn1c(-c2cscn2)nc2ccccc21)Nc1ccc(I)cc1
IC50 [1]: 3 to 10 µM

O=C1/C(=C\c2ccc(Br)cc2)SC(c2ccc(-n3ccnc3)cc2)N1Nc1ccccc1 (configuration not stated)
MIC [2]: 14.3 to 49.7 µM (≈ 7.18 to 25 µg/mL)

Fc1cc2nc(Cn3ccnc3)[nH]c2cc1-n1ccnc1
MIC [3]: 12.5 to 100 µg/mL (≈ 44.3 to 354 µM)

Cc1ccc2c(c1)cc(-c1nc(-c3ccccc3)c(-c3ccccc3)n1-c1ccccc1)c1nnnn12
inhibition of growth at 100 µg/mL [4]: 17 to 99%

COc1ccc(-n2c(-c3cc4ccccc4n4nnnc34)nc(-c3ccccc3)c2-c2ccccc2)cc1
inhibition of growth at 100 µg/mL [4]: 17 to 99%

CCc1nc2ccc(C)cc2n1CCCNc1ccc(C)cc1
MIC [5]: 0.056 to 0.88 µM (≈ 0.0172 to 0.271 µg/mL)

Cc1ccc(-n2c(-c3cc4cc(C)ccc4n4nnnc34)nc(-c3ccccc3)c2-c2ccccc2)cc1
inhibition of growth at 100 µg/mL [4]: 17 to 99%

CS(=O)(=O)c1nnc(-c2ncc([N+](=O)[O-])[nH]2)s1
selectivity ratio [6]: 0.3 to 0.6
MIC [7]: > 6.25 µg/mL

COc1ccc(NC(=O)Cn2c(-c3cscn3)nc3ccccc32)c(OC)c1
IC50 [1]: 3 to 10 µM

C[S+]([O-])c1nnc(-c2ncc([N+](=O)[O-])[nH]2)s1 (configuration not stated)
selectivity ratio [6]: 0.3 to 0.6
MIC [7]: 1.56 µg/mL (≈ 6.02 µM)

CCc1nc2ccc(C)cc2n1CCCNc1ccc(C)cc1C
MIC [5]: 0.056 to 0.88 µM (≈ 0.018 to 0.283 µg/mL)

COc1ccc(-c2nc3ccc(-c4ccc5nc(-c6ccccc6)[nH]c5c4)cc3[nH]2)cc1
MIC [8]: 0.25 to 1 µg/mL (≈ 0.6 to 2.4 µM)
MIC [9]: 0.25 to 1 µg/mL (≈ 0.6 to 2.4 µM)

CCc1nc2ccc(C)cc2n1CCCNc1ccc(OC)cc1
MIC [5]: 0.056 to 0.88 µM (≈ 0.0181 to 0.285 µg/mL)

COc1ccc(-n2c(-c3cc4cc(C)ccc4n4nnnc34)nc(-c3ccccc3)c2-c2ccccc2)cc1
inhibition of growth at 100 µg/mL [4]: 17 to 99%

O=C(Cn1c(-c2cscn2)nc2ccccc21)Nc1ccc([N+](=O)[O-])cc1
IC50 [1]: 3 to 10 µM

Fc1cc2nc(Cn3ccnc3)[nH]c2cc1Oc1ccc(Cl)cc1
MIC [3]: 12.5 to 100 µg/mL (≈ 36.5 to 292 µM)

CCc1nc2ccc(C)cc2n1CCCNc1ccccc1
MIC [5]: 0.056 µM (≈ 0.0164 µg/mL)

CCCOc1cccc(NC(=O)Cn2c(-c3cscn3)nc3ccccc32)c1
IC50 [1]: 3 to 10 µM

CCc1nc2ccc(C)cc2n1CCCSc1ccc(OC)cc1
MIC [5]: 0.056 to 0.88 µM (≈ 0.0191 to 0.3 µg/mL)

CCc1nc2ccc(C)cc2n1CCCCSc1ccccc1
MIC [5]: 0.056 to 2.6 µM (≈ 0.0182 to 0.844 µg/mL)

CCC[S+]([O-])c1nnc(-c2ncc([N+](=O)[O-])[nH]2)s1 (configuration not stated)
selectivity ratio [6]: 0.3 to 0.6
MIC [7]: 1.56 µg/mL (≈ 5.43 µM)

CSc1nnc(-c2ncc([N+](=O)[O-])[nH]2)s1
MIC [7]: 3.13 to 6.25 µg/mL (≈ 12.9 to 25.7 µM)

COc1ccc2c(c1)cc(-c1nc(-c3ccccc3)c(-c3ccccc3)n1-c1ccccc1)c1nnnn12
inhibition of growth at 100 µg/mL [4]: 17 to 99%

Cc1ccc(/C=C2/SC(c3ccc(-n4ccnc4)cc3)N(Nc3ccccc3)C2=O)cc1 (configuration not stated)
MIC [2]: 14.3 to 49.7 µM (≈ 6.26 to 21.8 µg/mL)

CCc1nc2ccc(C)cc2n1CCCCNc1cccc(Cl)c1
MIC [5]: 0.056 to 2.6 µM (≈ 0.0191 to 0.889 µg/mL)

O=C(Cn1c(-c2cscn2)nc2ccccc21)Nc1ccccc1
IC50 [1]: 3 to 10 µM

CCc1nc2ccc(C)cc2n1CCCCSc1ccc(OC)cc1
MIC [5]: 0.056 to 2.6 µM (≈ 0.0199 to 0.922 µg/mL)

Fc1cc2nc(Cn3ccnc3)[nH]c2cc1Cl
MIC [3]: 12.5 to 100 µg/mL (≈ 49.9 to 399 µM)

CCOc1ccc(-c2nc3ccc(-c4ccc5nc(-c6ccc(OCC)cc6)[nH]c5c4)cc3[nH]2)cc1
MIC [8]: 0.5 to 16 µg/mL (≈ 1.05 to 33.7 µM)
MIC [9]: 0.5 to 16 µg/mL (≈ 1.05 to 33.7 µM)

Nc1ccc(-c2nc3cc(-c4ccc5[nH]c(-c6ccc(N)cc6)nc5c4)ccc3[nH]2)cc1
MIC [8]: 0.5 to 16 µg/mL (≈ 1.2 to 38.4 µM)
MIC [9]: 0.5 to 16 µg/mL (≈ 1.2 to 38.4 µM)

O=C(O)c1cn(C2CC2)c2cc(N3CCNCC3)c(F)cc2c1=O [CIPROFLOXACIN]
MIC [10]: 3.12 µg/mL (≈ 9.43 µM)

NNC(=O)c1ccncc1 [ISONIAZID]
MIC [10]: 6.25 µg/mL (≈ 45.6 µM)
MIC [3]: 0.2 µg/mL (≈ 1.46 µM)

NC(=O)c1cnccn1 [PYRAZINAMIDE]
MIC [10]: 3.12 µg/mL (≈ 25.4 µM)

CN[C@@H]1[C@H](O[C@H]2[C@H](O[C@H]3[C@H](O)[C@@H](O)[C@H](N=C(N)N)[C@@H](O)[C@@H]3N=C(N)N)O[C@@H](C)[C@]2(O)C=O)O[C@@H](CO)[C@H](O)[C@H]1O [STREPTOMYCIN]
MIC [10]: 6.25 µg/mL (≈ 10.7 µM)
MIC [3]: 0.7 µg/mL (≈ 1.2 µM)
